# Assay results from patent publication US11524962B2, “Substituted pyrrolo[2,3-d]pyrimidines as inhibitors of protein arginine methyl transferase 5 (PRMT5)” (PRELUDE THERAPEUTICS, INCORPORATED, priority 2017, dated 2022).
# What was measured:
# [1] = test system: Granta-519 mouse xenograft; assay: Tumor growth inhibition in Granta-519 mouse xenograft model; assay type: in vivo
# Protocol: Granta-519 cells was maintained in DMEM medium supplemented with 10% fetal bovine serum and 2 mM L-Glutamine at 37° C. in an atmosphere of 5% CO2 in air. Cells in exponential growth phase were harvested and 1×10^7 cells in 0.1 mL of PBS with Matrigel (1:1) were injected subcutaneously at the right lower flank region of each mouse for tumor development. The treatments were started when the mean tumor size reaches approximately 300-400 mm^3. […] Example 1 or vehicle (0.5% Na CMC+0.5% Tween80, suspension) were administered orally (BID or QD for Example 1, QD for vehicle) at a dose of 25 mg/kg BID and 50 mg/kg QD for 16 and 20 days, respectively. Body weights and tumor size were measured every 3 to 4 days after randomization. Animals were euthanized 12 hours after last dosing, and blood and tumor samples were collected for analysis.
# [2] = test system: U87MG-luc3 human glioblastoma cells; assay: Tumor growth inhibition in U87 MG mouse orthotopic model; assay type: in vivo; conditions: for tumor growth inhibition: day 29
# Protocol: U87MG-luc3 human glioblastoma cells were grown to mid-log phase in Eagle's Minimum Essential Medium containing 10% fetal bovine serum, 2 mM glutamine, 1× non-essential amino acids, 0.075% sodium bicarbonate, 1 mM sodium pyruvate, 100 units/mL sodium penicillin G, g/mL gentamicin, and 100 μg/mL streptomycin sulfate. The tumor cells were cultured in tissue culture flasks in a humidified incubator at 37° C., in an atmosphere of 5% CO2 and 95% air. Cells were cultured in 2 μg/mL puromycin until the second to last passage before implant, grown to mid-log phase and harvested. Post-implant verification of luciferase-expressing cells was performed by maintaining cells in culture for three passages after implant to ensure stable doubling time. Limiting dilution was used to verify and quantitate light production in the presence of luciferin. Cells were harvested at mid-log phase and resuspended at a concentration of 1×10^8 cells/mL in PBS. Each mouse (Female athymic nude mice (Crl:NU(NCr)-Foxn1nu, Charles River)) received an intracranial injection of 1×10^6 U87MG-luc3 cells (0.01 mL cell suspension) and tumor growth was monitored through whole body bioluminescent imaging. Four days post cell implant, designated as Day 1 of the study, the animals were sorted into five groups based on flux values before treatment starts. Ex. 11 or vehicle (0.5% Na CMC+0.5% Tween80) was administered orally BID. Ex. 11 was dosed at 10, 20 mg/kg BID and 50 mg/kg BID, 7-day on/7-day off for 22 days. Animals were continued to be observed to obtain overall survival data.
# In Vivo bioluminescence images (dorsal) were captured to monitor tumor progression. Luciferase activity was measured in live animals using IVIS SpectrumCT (Perkin Elmer, Mass.) equipped with a CCD camera (cooled at −90° C.), mounted on a light-tight specimen chamber. Regions of interest were drawn around each mouse image, and flux was quantified and reported as 10^6 photons per second (p/s). For overall survival, animals were monitored individually to an endpoint of moribundity due to progression of systemic lymphoma. Full hind limb paralysis, severe ocular proptosis or moribundity all called for euthanasia.
# [3] = 50 mg/kg BID oral, 7-day on/7-day off
SMILES,"body weight loss ([1]; 25 mg/kg BID oral, 16 days)","tumor growth inhibition ([1]; 25 mg/kg BID oral, 16 days)","body weight gain ([1]; 50 mg/kg QD oral, 20 days)","tumor growth inhibition ([1]; 50 mg/kg QD oral, 20 days)",median survival ([2]; 10 mg/kg BID oral),tumor growth inhibition ([2]; 10 mg/kg BID oral),median survival ([2]; 20 mg/kg BID oral),tumor growth inhibition ([2]; 20 mg/kg BID oral),"median survival [2, 3]","tumor growth inhibition [2, 3]"
"C[C@@](O)(c1ccc2c(c1)CC2)[C@H]1O[C@@H](n2ccc3c(N)ncnc32)[C@H](O)[C@@H]1O [Example 1, (2R,3R,4S,5S)-2-(4-amino-7H-pyrrolo[2,3-d]pyrimidin-7-yl)-5-((R)-1-(bicyclo[4.2.0]octa-1(6),2,4-trien-3-yl)-1-hydroxyethyl)tetrahydrofuran-3,4-diol]",6.75%,76.7%,10.1%,5.8%,–,–,–,–,–,–
"Cc1ncnc2c1ccn2[C@@H]1O[C@H]([C@H](O)c2ccc3c(c2)CC3)[C@@H](O)[C@H]1O [Example 11, (2R,3S,4R,5R)-2-((R)-bicyclo[4.2.0]octa-1(6),2,4-trien-3-yl(hydroxy)methyl)-5-(4-methyl-7H-pyrrolo[2,3-d]pyrimidin-7-yl)tetrahydrofuran-3,4-diol]",–,–,–,–,41 days,10%,37.5 days,61%,39 days,85%
